Residues, ends and D or L forms follow the SMILES beside them.
Key:
Format in all cases: cell-based
Porphyromonas gingivalis = assay: Metabolic activity, Biolog phenotype microarray; details: control without dipeptide = 1
Protocol: (§1) The extent of metabolic activity of the tested bacteria in the presence of the above-mentioned dipeptides after 24 hours and 48 hours was investigated through a high throughput phenotype microarray system (PM) for microbial cells (Biolog Inc.). Each PM can contain up to 95 different biochemical compounds (e.g. di-peptides) that may act as substrates for bacteria as well as one negative control, not containing the substrates. Microarray plates were used in which the different wells of each plate were pre-loaded (by the manufacturer, Biolog Inc.) with different di-peptides to be tested. Each bacterial species was tested using a separate microarray plate. Thus, a single bacterial species was tested with a variety of dipeptides on each particular plate. The microarrays are based on redox technology, using cell respiration as a universal reporter. Active cell respiration results in the reduction of a tetrazolium dye and in the formation of a strong color—for example, when using the tetrazolium dye “Biolog Redox Dye Mix D”, the color changes from transparent/colourless to purple when the dye is reduced. The observation of this color change indicates which of the substrates improve the metabolic activity and health of the cells. Each bacterial species was collected from blood agar plates (incubated for 48 hours anaerobically at 37° C.) and transferred to an IF-0 Base inoculation fluid (Biolog Inc.), which is a nutritionally poor medium. The resulting cell suspension was adjusted to a transmittance of 42% (relative to the transmittance of the base inoculation fluid with no bacterial species present) at 492 nm using a BioRad SmartSpec 3000 Photometer (the adjustment being effected by adding either further inoculation fluid or further bacteria until the transmittance of 42% was achieved). A 1:5 dilution of this suspension was prepared by mixing 3 mL of the 42% transmittance cell suspension with 15 mL of an inoculation fluid (which inoculation fluid was formed by mixing 11.6 mL sterile water, 62.5 mL IF-0 base inoculation fluid and 0.9 mL of the tetrazolium dye “Biolog Redox Dye mix D”), resulting in a final cell density which was equal to 85% transmittance using a BioRad SmartSpec 3000 Photometer. 680 μL of a 2M sodium succinate/200 μM ferric citrate solution in distilled water was added to 68 mL of the 85% transmittance cell suspension and 100 μL of this mixture was added to each well (the various di-peptides being already present in powder form in the relevant wells of the plate as obtained from the supplier i.e. Biolog Inc.). All plates were incubated in an anaerobic atmosphere at 37° C. Color changes were measured spectrophotometrically at 492 nm (Thermo Scientific Multiskan Ascent) at 24 hrs and 48 hrs using the same plate at both time points. […] After 24 hrs and 48 hrs under continuous shaking in a Multiscan microplate reader, the optical density (OD) of the synthetic medium at 24 hours and 48 hours was measured (using the microplate reader) at a wavelength of 492 nm for each combination of bacterium/dipeptide, and for each of their respective controls (i.e. which contained the particular bacterium but no dipeptide). […] The experiment was carried out three times for each combination of bacterium with dipeptide, with each repeat being carried out on a different day (thus providing three biological replicas). The controls were also carried out three times, as above. The values shown are the average (mean) of the three single values obtained (as detailed above) for each combination of bacterium with dipeptide, at 24 hrs and at 48 hrs.

Tannerella forsythia = assay: Metabolic activity, Biolog phenotype microarray; details: control without dipeptide = 1
Protocol: as §1

Streptococcus sanguinis = assay: Metabolic activity, Biolog phenotype microarray; details: control without dipeptide = 1
Protocol: as §1

Streptococcus salivarius = assay: Metabolic activity, Biolog phenotype microarray; details: control without dipeptide = 1
Protocol: as §1

Fusobacterium nucleatum = assay: Metabolic activity, Biolog phenotype microarray; details: control without dipeptide = 1
Protocol: as §1

Actinomyces naeslundii = assay: Metabolic activity, Biolog phenotype microarray; details: control without dipeptide = 1
Protocol: as §1

Streptococcus gordonii = assay: Metabolic activity, Biolog phenotype microarray; details: control without dipeptide = 1
Protocol: as §1

Capnocytophaga sputigena = assay: Metabolic activity, Biolog phenotype microarray; details: control without dipeptide = 1
Protocol: as §1

Streptococcus mutans = assay: Metabolic activity, Biolog phenotype microarray; details: control without dipeptide = 1
Protocol: as §1

Streptococcus mitis = assay: Metabolic activity, Biolog phenotype microarray; details: control without dipeptide = 1
Protocol: as §1

Streptococcus sobrinus = assay: Metabolic activity, Biolog phenotype microarray; details: control without dipeptide = 1
Protocol: as §1

[1] = tested on: Aggregatibacter actinomycetemcomitans; assay: Metabolic activity, Biolog phenotype microarray; details: control without dipeptide = 1
Protocol: as §1

Actinomyces viscosus = assay: Metabolic activity, Biolog phenotype microarray; details: control without dipeptide = 1
Protocol: as §1

Veillonella parvula = assay: Metabolic activity, Biolog phenotype microarray; details: control without dipeptide = 1
Protocol: as §1

Prevotella intermedia = assay: Metabolic activity, Biolog phenotype microarray; details: control without dipeptide = 1
Protocol: as §1

[2] = tested on: beneficial oral bacteria and pathogenic oral bacteria; assay: Metabolic activity, whole panel: prebiotic effect; details: for prebiotic effects (metabolic activity): threshold value of 2
Protocol: Substrates that were able to increase the metabolic activity of at least one of the above beneficial bacteria while not or only minimally increasing the growth of the pathogenic bacteria are considered to be prebiotic substrates. The extent of metabolic activity of the tested bacteria in the presence of the above-mentioned dipeptides after 24 hours and 48 hours was investigated through a high throughput phenotype microarray system (PM) for microbial cells (Biolog Inc.). Each PM can contain up to 95 different biochemical compounds (e.g. di-peptides) that may act as substrates for bacteria as well as one negative control, not containing the substrates. Microarray plates were used in which the different wells of each plate were pre-loaded (by the manufacturer, Biolog Inc.) with different di-peptides to be tested. Each bacterial species was tested using a separate microarray plate. Thus, a single bacterial species was tested with a variety of dipeptides on each particular plate. The microarrays are based on redox technology, using cell respiration as a universal reporter. Active cell respiration results in the reduction of a tetrazolium dye and in the formation of a strong color—for example, when using the tetrazolium dye “Biolog Redox Dye Mix D”, the color changes from transparent/colourless to purple when the dye is reduced. The observation of this color change indicates which of the substrates improve the metabolic activity and health of the cells. Each bacterial species was collected from blood agar plates (incubated for 48 hours anaerobically at 37° C.) and transferred to an IF-0 Base inoculation fluid (Biolog Inc.), which is a nutritionally poor medium. The resulting cell suspension was adjusted to a transmittance of 42% (relative to the transmittance of the base inoculation fluid with no bacterial species present) at 492 nm using a BioRad SmartSpec 3000 Photometer (the adjustment being effected by adding either further inoculation fluid or further bacteria until the transmittance of 42% was achieved). A 1:5 dilution of this suspension was prepared by mixing 3 mL of the 42% transmittance cell suspension with 15 mL of an inoculation fluid (which inoculation fluid was formed by mixing 11.6 mL sterile water, 62.5 mL IF-0 base inoculation fluid and 0.9 mL of the tetrazolium dye “Biolog Redox Dye mix D”), resulting in a final cell density which was equal to 85% transmittance using a BioRad SmartSpec 3000 Photometer. 680 μL of a 2M sodium succinate/200 μM ferric citrate solution in distilled water was added to 68 mL of the 85% transmittance cell suspension and 100 μL of this mixture was added to each well (the various di-peptides being already present in powder form in the relevant wells of the plate as obtained from the supplier i.e. Biolog Inc.). All plates were incubated in an anaerobic atmosphere at 37° C. Color changes were measured spectrophotometrically at 492 nm (Thermo Scientific Multiskan Ascent) at 24 hrs and 48 hrs using the same plate at both time points. […] After 24 hrs and 48 hrs under continuous shaking in a Multiscan microplate reader, the optical density (OD) of the synthetic medium at 24 hours and 48 hours was measured (using the microplate reader) at a wavelength of 492 nm for each combination of bacterium/dipeptide, and for each of their respective controls (i.e. which contained the particular bacterium but no dipeptide). […] The experiment was carried out three times for each combination of bacterium with dipeptide, with each repeat being carried out on a different day (thus providing three biological replicas). The controls were also carried out three times, as above. The values shown are the average (mean) of the three single values obtained (as detailed above) for each combination of bacterium with dipeptide, at 24 hrs and at 48 hrs. […] This value was selected in order to exclude low-stimulating metabolites and avoid false positive results.

| Structure (SMILES) | metabolic activity: OD 492 nm divided by OD of control (Porphyromonas gingivalis; 24 hrs) | metabolic activity: OD 492 nm divided by OD of control (Porphyromonas gingivalis; 48 hrs) | metabolic activity: OD 492 nm divided by OD of control (Tannerella forsythia; 24 hrs) | metabolic activity: OD 492 nm divided by OD of control (Tannerella forsythia; 48 hrs) | metabolic activity: OD 492 nm divided by OD of control (Streptococcus sanguinis; 24 hrs) | metabolic activity: OD 492 nm divided by OD of control (Streptococcus sanguinis; 48 hrs) | metabolic activity: OD 492 nm divided by OD of control (Streptococcus salivarius; 24 hrs) | metabolic activity: OD 492 nm divided by OD of control (Streptococcus salivarius; 48 hrs) | metabolic activity: OD 492 nm divided by OD of control (Fusobacterium nucleatum; 24 hrs) | metabolic activity: OD 492 nm divided by OD of control (Fusobacterium nucleatum; 48 hrs) | metabolic activity: OD 492 nm divided by OD of control (Actinomyces naeslundii; 24 hrs) | metabolic activity: OD 492 nm divided by OD of control (Actinomyces naeslundii; 48 hrs) | metabolic activity: OD 492 nm divided by OD of control (Streptococcus gordonii; 24 hrs) | metabolic activity: OD 492 nm divided by OD of control (Streptococcus gordonii; 48 hrs) | metabolic activity: OD 492 nm divided by OD of control (Capnocytophaga sputigena; 24 hrs) | metabolic activity: OD 492 nm divided by OD of control (Capnocytophaga sputigena; 48 hrs) | metabolic activity: OD 492 nm divided by OD of control (Streptococcus mutans; 24 hrs) | metabolic activity: OD 492 nm divided by OD of control (Streptococcus mutans; 48 hrs) | metabolic activity: OD 492 nm divided by OD of control (Streptococcus mitis; 24 hrs) | metabolic activity: OD 492 nm divided by OD of control (Streptococcus mitis; 48 hrs) | other results |
| --- | --- | --- | --- | --- | --- | --- | --- | --- | --- | --- | --- | --- | --- | --- | --- | --- | --- | --- | --- | --- | --- |
| NC(Cc1c[nH]cn1)C(=O)NC(Cc1c[nH]c2ccccc12)C(=O)O (stereo not drawn) [His-Trp] | 1.0126 | 1.3518 | 0.8973 | 0.9897 | 1.0228 | 1.0830 | 0.9767 | 1.0689 | 0.9185 | 0.9774 | 1.3153 | 1.5439 | 1.0431 | 1.1070 | 1.3266 | 1.3068 | 1.0292 | 1.5031 | 0.9734 | 1.0242 | metabolic activity: OD 492 nm divided by OD of control (Streptococcus sobrinus; 24 hrs): 1.0811; metabolic activity: OD 492 nm divided by OD of control (Streptococcus sobrinus; 48 hrs): 1.2074; metabolic activity: OD 492 nm divided by OD of control ([1]; 24 hrs): 0.9439; metabolic activity: OD 492 nm divided by OD of control ([1]; 48 hrs): 0.9818; metabolic activity: OD 492 nm divided by OD of control (Actinomyces viscosus; 24 hrs): 1.8735; metabolic activity: OD 492 nm divided by OD of control (Actinomyces viscosus; 48 hrs): 2.2797; metabolic activity: OD 492 nm divided by OD of control (Veillonella parvula; 24 hrs): 1.1364; metabolic activity: OD 492 nm divided by OD of control (Veillonella parvula; 48 hrs): 1.4269; metabolic activity: OD 492 nm divided by OD of control (Prevotella intermedia; 24 hrs): 1.0278; metabolic activity: OD 492 nm divided by OD of control (Prevotella intermedia; 48 hrs): 1.2057; prebiotic effects (metabolic activity) ([2]; 48 hrs): exhibited prebiotic effects |
| CC(C)C(NC(=O)C(N)CO)C(=O)O (stereo not drawn) [Ser-Val] (H-Ser-Val-OH; configuration not given here) | 1.3880 | 1.9267 | 1.2842 | 1.7260 | 1.2030 | 1.5280 | 1.3826 | 1.9626 | 1.3741 | 1.5983 | 1.4073 | 1.7338 | 1.4328 | 1.7640 | 1.4541 | 1.4933 | 1.4622 | 2.0721 | 1.4166 | 1.8051 | metabolic activity: OD 492 nm divided by OD of control (Streptococcus sobrinus; 24 hrs): 1.3133; metabolic activity: OD 492 nm divided by OD of control (Streptococcus sobrinus; 48 hrs): 1.8354; metabolic activity: OD 492 nm divided by OD of control ([1]; 24 hrs): 1.4527; metabolic activity: OD 492 nm divided by OD of control ([1]; 48 hrs): 1.9697; metabolic activity: OD 492 nm divided by OD of control (Actinomyces viscosus; 24 hrs): 2.1120; metabolic activity: OD 492 nm divided by OD of control (Actinomyces viscosus; 48 hrs): 2.4349; metabolic activity: OD 492 nm divided by OD of control (Veillonella parvula; 24 hrs): 1.2776; metabolic activity: OD 492 nm divided by OD of control (Veillonella parvula; 48 hrs): 1.3095; metabolic activity: OD 492 nm divided by OD of control (Prevotella intermedia; 24 hrs): 1.4709; metabolic activity: OD 492 nm divided by OD of control (Prevotella intermedia; 48 hrs): 1.7953; prebiotic effects (metabolic activity) ([2]; 24 hrs): exhibited prebiotic effects; speed of metabolism by beneficial versus pathogenic bacteria ([2]; value of 2 reached at 24 hrs for beneficial but not pathogenic bacteria): metabolized faster by the beneficial bacteria than by the pathogenic bacteria |
